The text below walks through data of ChEMBL document CHEMBL6103592, “Discovery of novel thiazole-pleuromutilin derivatives with potent antibacterial activity” (Eur J Med Chem, 2025).

Common to all, as to format: functional
Experiment [1] has as its system Staphylococcus aureus. As to the kind of experiment: Antibacterial activity against methicillin-resistant Staphylococcus aureus ATCC 43300 assessed as inhibition of visible bacterial growth incubated for 24 hrs by CLSI based broth microdilution method.
In experiment [2] the test system is Staphylococcus aureus. Put plainly: Antibacterial activity against Staphylococcus aureus ATCC 25923 assessed as inhibition of visible bacterial growth incubated for 24 hrs by CLSI based broth microdilution method.
In a further experiment the test system is Enterococcus faecalis. Put plainly: Antibacterial activity against Enterococcus faecalis assessed as inhibition of visible bacterial growth incubated for 24 hrs by CLSI based broth microdilution method.
The test system of a further experiment is Escherichia coli. Put plainly: Antibacterial activity against Escherichia coli ATCC 25922 assessed as inhibition of visible bacterial growth incubated for 24 hrs by CLSI based broth microdilution method.
The subject of a further experiment is Streptococcus agalactiae. As to the kind of experiment: Antibacterial activity against Streptococcus agalactiae assessed as inhibition of visible bacterial growth incubated for 24 hrs by CLSI based broth microdilution method.
Another experiment deals with Mycoplasma. Put plainly: Antibacterial activity against Mycoplasma F3 assessed as inhibition of visible bacterial growth incubated for 24 hrs by CLSI based broth microdilution method.

Converted amounts (≈) assume the structure as drawn.

As to `C=C[C@]1(C)C[C@@H](OC(=O)CSc2nc(OC(=O)c3ccc(Cl)cc3)cs2)[C@]2(C)[C@H](C)CC[C@]3(CCC(=O)[C@H]32)[C@@H](C)[C@@H]1O`, the MIC is 0.5 µg/mL (≈ 0.791 µM) in the experiment with Staphylococcus aureus [1]; 0.5 µg/mL (≈ 0.791 µM) in the experiment with Staphylococcus aureus [2]; more than 32 µg/mL with Enterococcus faecalis; more than 32 µg/mL in the experiment with Escherichia coli; 0.063 µg/mL (≈ 0.0996 µM) in the experiment on Streptococcus agalactiae; 0.25 µg/mL (≈ 0.395 µM) with Mycoplasma.
For the molecule `C=C[C@]1(C)C[C@@H](OC(=O)CSc2nc(OC(=O)c3ccc(Cl)cc3Cl)cs2)[C@]2(C)[C@H](C)CC[C@]3(CCC(=O)[C@H]32)[C@@H](C)[C@@H]1O`, the MIC with Staphylococcus aureus [1] was 0.5 µg/mL (≈ 0.75 µM); in the experiment with Staphylococcus aureus [2], 2 µg/mL (≈ 3 µM); with Enterococcus faecalis, more than 32 µg/mL; in the experiment with Escherichia coli it was more than 32 µg/mL; with Streptococcus agalactiae, 0.063 µg/mL (≈ 0.0945 µM); with Mycoplasma, 0.5 µg/mL (≈ 0.75 µM).
In the case of `C=C[C@]1(C)C[C@@H](OC(=O)CSc2nc(OC(=O)C3CC3)cs2)[C@]2(C)[C@H](C)CC[C@]3(CCC(=O)[C@H]32)[C@@H](C)[C@@H]1O`, the minimum inhibitory concentration (MIC) is 0.5 µg/mL (≈ 0.89 µM) in the experiment with Staphylococcus aureus [1]; 1 µg/mL (≈ 1.78 µM) in the experiment on Staphylococcus aureus [2]; more than 32 µg/mL in the experiment with Enterococcus faecalis; more than 32 µg/mL in the experiment with Escherichia coli; 0.063 µg/mL (≈ 0.112 µM) in the experiment on Streptococcus agalactiae; 0.25 µg/mL (≈ 0.445 µM) in the experiment with Mycoplasma.
For `C=C[C@]1(C)C[C@@H](OC(=O)CSc2nc(OC(=O)c3cccc(Cl)c3)cs2)[C@]2(C)[C@H](C)CC[C@]3(CCC(=O)[C@H]32)[C@@H](C)[C@@H]1O`, the MIC with Staphylococcus aureus [1] is 1 µg/mL (≈ 1.58 µM); with Staphylococcus aureus [2], 0.25 µg/mL (≈ 0.395 µM); in the experiment with Enterococcus faecalis it was more than 32 µg/mL; with Escherichia coli, more than 32 µg/mL; in the experiment on Streptococcus agalactiae, 0.063 µg/mL (≈ 0.0996 µM); in the experiment with Mycoplasma, 0.25 µg/mL (≈ 0.395 µM).
Regarding `C=C[C@]1(C)C[C@@H](OC(=O)CSc2nc(OC(=O)CC(C)(C)C)cs2)[C@]2(C)[C@H](C)CC[C@]3(CCC(=O)[C@H]32)[C@@H](C)[C@@H]1O`, the MIC in the experiment on Staphylococcus aureus [1] was 0.5 µg/mL (≈ 0.845 µM); with Staphylococcus aureus [2], 0.5 µg/mL (≈ 0.845 µM); in the experiment on Enterococcus faecalis, more than 32 µg/mL; with Escherichia coli, more than 32 µg/mL; with Streptococcus agalactiae, 0.125 µg/mL (≈ 0.211 µM); with Mycoplasma it was 0.25 µg/mL (≈ 0.422 µM).
As to `C=C[C@]1(C)C[C@@H](OC(=O)CSc2nc(OC(=O)C(C)(C)CC)cs2)[C@]2(C)[C@H](C)CC[C@]3(CCC(=O)[C@H]32)[C@@H](C)[C@@H]1O`, the MIC in the experiment with Staphylococcus aureus [1] is 0.5 µg/mL (≈ 0.845 µM); in the experiment with Staphylococcus aureus [2] it was 0.25 µg/mL (≈ 0.422 µM); in the experiment with Enterococcus faecalis, more than 32 µg/mL; with Escherichia coli it was more than 32 µg/mL; with Streptococcus agalactiae, 0.063 µg/mL (≈ 0.106 µM); in the experiment with Mycoplasma, 0.125 µg/mL (≈ 0.211 µM).
Consider `C=C[C@]1(C)C[C@@H](OC(=O)CSc2nc(OC(=O)c3ccc(F)cc3)cs2)[C@]2(C)[C@H](C)CC[C@]3(CCC(=O)[C@H]32)[C@@H](C)[C@@H]1O`, for which the minimal inhibitory concentration (MIC) in the experiment on Staphylococcus aureus [1] was 0.5 µg/mL (≈ 0.812 µM); in the experiment with Staphylococcus aureus [2], 0.5 µg/mL (≈ 0.812 µM); in the experiment on Enterococcus faecalis it was more than 32 µg/mL; in the experiment with Escherichia coli it was more than 32 µg/mL; in the experiment on Streptococcus agalactiae, 0.125 µg/mL (≈ 0.203 µM); in the experiment with Mycoplasma, 0.25 µg/mL (≈ 0.406 µM).
`C=C[C@]1(C)C[C@@H](OC(=O)CSc2nc(OC(=O)c3ccccc3Cl)cs2)[C@]2(C)[C@H](C)CC[C@]3(CCC(=O)[C@H]32)[C@@H](C)[C@@H]1O`: the MIC was 0.5 µg/mL (≈ 0.791 µM) in the experiment on Staphylococcus aureus [1]; 1 µg/mL (≈ 1.58 µM) with Staphylococcus aureus [2]; more than 32 µg/mL in the experiment with Enterococcus faecalis; more than 32 µg/mL in the experiment with Escherichia coli; 0.125 µg/mL (≈ 0.198 µM) with Streptococcus agalactiae; 0.25 µg/mL (≈ 0.395 µM) in the experiment with Mycoplasma.
Take `C=C[C@]1(C)C[C@@H](OC(=O)CSc2nc(OC(=O)c3ccc(C)cc3)cs2)[C@]2(C)[C@H](C)CC[C@]3(CCC(=O)[C@H]32)[C@@H](C)[C@@H]1O`: the MIC in the experiment on Staphylococcus aureus [1] was 1 µg/mL (≈ 1.63 µM); with Staphylococcus aureus [2] it was 0.25 µg/mL (≈ 0.409 µM); in the experiment with Enterococcus faecalis it was more than 32 µg/mL; in the experiment on Escherichia coli, more than 32 µg/mL; in the experiment on Streptococcus agalactiae, 0.063 µg/mL (≈ 0.103 µM); in the experiment on Mycoplasma it was 0.5 µg/mL (≈ 0.817 µM).
Consider `C=C[C@]1(C)C[C@@H](OC(=O)CSc2nc(OC(=O)c3cccc(OC)c3)cs2)[C@]2(C)[C@H](C)CC[C@]3(CCC(=O)[C@H]32)[C@@H](C)[C@@H]1O`, for which the MIC in the experiment on Staphylococcus aureus [1] is 1 µg/mL (≈ 1.59 µM); in the experiment with Staphylococcus aureus [2], 1 µg/mL (≈ 1.59 µM); in the experiment on Enterococcus faecalis it was more than 32 µg/mL; in the experiment on Escherichia coli, more than 32 µg/mL; in the experiment on Streptococcus agalactiae, 0.063 µg/mL (≈ 0.1 µM); in the experiment with Mycoplasma it was 0.25 µg/mL (≈ 0.398 µM).
